Where two headings read alike, the source gives them in different places.
Columns and labels:
[1] = Example 1: plasma pharmacokinetics of Compound 1 alone and coadministered with RTV in healthy subjects; type: in vivo, human; conditions: 100 mg
Description: The study was an open-label, fixed-sequence, crossover, pharmacokinetic study with 12 subjects. The subjects were healthy males and non-pregnant, nonlactating females between 18 and 45 years of age, inclusive. The duration of the study was 20 days, with Period 1 of Days 1 to 10 and Period 2 of days 11 to 20. Follow-up contact was on day 27.

[2] = Example 1: multiple-dose safety of Compound 1 alone and with RTV; type: in vivo, human
Protocol: The single-dose and multiple-dose pharmacokinetics of Compound 1 were also determined. The multiple-dose safety of Compound 1 administered alone and with RTV was also determined. Safety: Safety was evaluated by assessment of clinical laboratory tests at baseline and at various time points during the study; periodic physical examinations, including vital signs; and documentation of adverse events throughout the study. Safety: No statistical inference was performed for safety data in this pharmacokinetic study.

HIV-1 = assay: Example 2: antiviral activity (HIV-1 RNA reduction) and exposure-response in subjects infected with HIV-1; type: in vivo, human
Protocol: At screening, subjects were to have a plasma HIV-1 RNA load of ≧10,000 to ≦300,000 copies/mL and a CD4+ cell count of ≧200 cells/mm^3.
Safety, tolerability, pharmacokinetics, and efficacy were monitored through Day 21 after dosing. […] The placebo group in Cohort 5 also received 100 mg of RTV.
The duration of the study was 21 days, with 10 days of treatment and 11 days of follow-up. […] Matching placebo was administered orally under fed conditions. For Cohort 5 only, 100 mg RTV capsules were coadministered orally under fed conditions.
Efficacy: The primary efficacy endpoint was the maximum HIV-1 RNA reduction (log10 copies/mL) from baseline through Day 11. The maximum reduction for an individual subject was the maximum drop among changes from baseline between Days 2 and 11.
The 2 subjects who received placebo+100 mg RTV were treated as a separate group. HIV-1 RNA values below the detection limit (50 copies/mL) were entered as 49 copies/mL.

[3] = human, in vivo
Protocol: Safety, tolerability, pharmacokinetics, and efficacy were monitored through Day 21 after dosing. The active treatments in the 5 cohorts were as follows: […] The duration of the study was 21 days, with 10 days of treatment and 11 days of follow-up. […] Matching placebo was administered orally under fed conditions. For Cohort 5 only, 100 mg RTV capsules were coadministered orally under fed conditions. […] Pharmacokinetics: The pharmacokinetic parameters of Compound 1 in plasma and peripheral blood mononuclear cells were summarized using descriptive statistics.

[4] = human, in vivo; remark: listed apart in the source
Protocol: Safety, tolerability, pharmacokinetics, and efficacy were monitored through Day 21 after dosing. The active treatments in the 5 cohorts were as follows: […] Safety: Adverse events, vital signs, electrocardiogram, ophthalmologic examination, and clinical laboratory tests were evaluated for safety. Safety: The proportion of subjects with adverse events was summarized by treatment, system organ class and preferred term for treatment-emergent adverse events, treatment-related adverse events, serious adverse events, and adverse events leading to study drug discontinuation. Adverse events were coded using the Medical Dictionary for Regulatory Activities (MedDRA®) version 8.1. […] Laboratory results were expressed on the original measurement scale and in terms of the toxicity grade. Changes from baseline in quantitative laboratory tests were summarized by visit.

[5] = Example 3: Compound 1 pharmacokinetics at a range of RTV doses; type: in vivo, human; conditions: Compound 1 125 mg QD + 200 mg RTV; mean
Protocol: (§1) The effects of a range of RTV doses (20, 50, 100, and 200 mg once daily) on hepatic cytochrome P450 3A (CYP3A) activity were also evaluated using a CYP3A substrate.
(§2) A randomized, open label, single-center, multiple-dose, two group, Phase 1 study was conducted (24 subjects (16 evaluable) subjects in two groups; 12 (8 evaluable) in each group) with an approximately even distribution of healthy male and non-pregnant, non-lactating female subjects aged between 18-45, inclusive
(§3) The population mean slope was estimated along with a corresponding 90% CI. This study was performed in compliance with the guidelines of Good Clinical Practices (GCPs).

[6] = in vivo
Protocol: Pharmacokinetic (PK) blood draws were performed on days 7, 17, and 27.

[7] = Example 4: safety of FTC/TDF and Compound 1/r; type: in vivo, human; conditions: Compound 1/r and their co-administration
[8] = Example 5: pharmacokinetic drug-drug interaction of zidovudine and Compound 1/r; type: in vivo, human; conditions: for AUCtau, Cmax, Ctau (Compound 1 only) 90% CI of GMR (co-administration:alone): Compound 1/r 200/100 mg QD plus ZDV 300 mg BID, with a meal, bounds 70% to 143%
Description: Zidovudine is a NRTI used in HIV patients.

[9] = Example 7: effect of food on pharmacokinetics of Compound 1 in Japanese male healthy volunteers; type: in vivo, human; conditions: 400 mg
Protocol: Subjects in the 400 mg fasted cohort received an additional 400 mg dose with breakfast after a washout period (generally a minimum of ten days after the initial administration). The interval of ten days between the two doses was considered appropriate for eliminating any within subject carryover effects. […] Doses were administered at similar times for each subject in each treatment period. […] Plasma samples were isolated from healthy subjects administered with Compound 1. The plasma samples were extracted by solid phase extraction using Empore™ Disk Plate (C8SD), and then measured by high-performance liquid chromatography/tandem mass spectrometry (LC/MS/MS) (HPLC model 2795 separations module from Waters; mass spectrometer model API4000 from MDS SCIEX). Ionization and detection were performed with electrospray ionization and positive ion detection with multiple reaction monitoring, respectively. […] To 50 μL of plasma samples spiked with […] each of 90% acetonitrile and 20 mmol/L ammonium formate-formic acid buffer (pH 3.0)/acetonitrile (10:90, v/v), 10 μL each of internal standard solution was added. To these samples, 200 μL of 0.1% formic acid in 10% acetonitrile was added. These solutions were then mixed for 10 seconds and centrifuged at 10,000 rpm for 5 minutes at 4° C. […] Then, 10 μL of each solution was injected into the LC/MS/MS system and analyzed.

[10] = Example 7: safety of single 400 mg dose of Compound 1; type: in vivo, human; conditions: single oral dose, Japanese male healthy volunteers
Protocol: The subjects were admitted to the medical institution in the afternoon on the day before administration (“Day −1”). […] The subjects were discharged the day after administration (“Day 2”). Thus, the subjects were hospitalized for a total of three days. Follow up assessment for safety was performed 6 to 8 days after administration (“Days 7 to 9”).

[11] = tested on: hepatic cytochrome P450 3A (CYP3A) activity; assay: Example 3: IV midazolam (MDZ) pharmacokinetics as probe for CYP3A activity at a range of RTV doses; conditions: for AUCinf: MDZ 1 mg IV, mean
Protocol: as §1, §2
For MDZ: AUC0-last, AUCinf, % AUCexp, Clast, Tlast, λz, T1/2, CL and Vz.
as §3

[12] = Example 3: RTV pharmacokinetics when dosed with Compound 1; type: in vivo, human; conditions: RTV 100 mg QD with Compound 1; mean (CV %)
Protocol: as §1, §2, §3

[13] = after administration of Compound 1+RTV

In the case of `COc1cc2c(cc1Cc1cccc(Cl)c1F)c(=O)c(C(=O)O)cn2[C@H](CO)C(C)C` [Compound 1, 6-(3-chloro-2-fluorobenzyl)-1-[(2S)-1-hydroxy-3-methylbutan-2-yl]-7-methoxy-4-oxo-1,4-dihydroquinoline-3-carboxylic acid], the “mean steady-state systemic exposure (AUCtau, Day 10) lower compared with mean exposure (AUCinf) after a single dose (Day 1)” value ([1]; Compound 1 alone, indicating autoinduction) is reported as “approximately 20%”, the AUC ([1]; both sexes, human, plasma, po) is reported as 908 ng·h/mL and the serious adverse events ([2]; Compound 1 alone and Compound 1+RTV, whole study) is reported as “No serious adverse events occurred”. The “subjects with treatment-emergent AEs considered related to study drugs” value [2, 13] was 5 of 12 subjects, the “treatment-related AEs reported in more than one subject” value [2, 13] was “nausea (three subjects), vomiting (two subjects), headache (two subjects), and pruritus (two subjects)” and the “subjects with treatment-emergent AEs considered related to study drugs” value ([2]; after administration of Compound 1 alone) was 2 of 12 subjects. For the same molecule, the tolerability ([2]; concurrent oral Compound 1 100 mg twice daily and RTV 100 mg twice daily for up to 10 days) was “generally well-tolerated”, the “subjects experiencing nausea (most frequent treatment-emergent AE)” value ([2]; during administration of Compound 1+RTV) was 4 subjects and the “subjects with treatment-emergent adverse events” value ([2]; during administration of Compound 1+RTV, each 100 mg twice daily) was 7 of 12 subjects. For the same molecule, the “subjects with treatment-emergent adverse events” value ([2]; during administration of Compound 1 alone, 100 mg twice daily) was 4 of 12 subjects, the tolerability ([2]; oral Compound 1 100 mg twice daily for up to 20 days) was “well tolerated” and the “Emax (reduction from baseline, simple Emax model)” value (HIV-1; Compound 1 Ctau versus HIV-1 RNA reduction) was 2.32 log10 copies/mL. For the same molecule, the “HIV-1 RNA levels compared with placebo” value (HIV-1; all dose levels, 10 consecutive days) was “significantly reduced HIV-1 RNA levels”, the enhancement of exposure [3] was 10 to 16 fold and the “changes in hematology and urinalysis findings, vital signs, body weight, electrocardiogram and ophthalmic examinations” value [4] was “No clinically relevant changes”. The “dose interruptions, discontinuations, or serious adverse events” value [4] was “no dose interruptions, discontinuations, or serious adverse events”, the tolerability [4] was “generally well tolerated” and the AUCtau [5] was 20600 ng·h/mL. The “PK (Cmax, AUCtau, Ctau) during co-administration versus alone” value [6] was “unaffected”, the “serious adverse events or discontinuations due to AEs” value [7] was “no serious adverse events” and the Half-life ([8]; human, in vivo) was “supporting once daily dosing”. For the same molecule, the “AUC0-inf higher in the fed state compared to the fasted state” value [9] was 2.69 fold, the “Cmax higher in the fed state compared to the fasted state” value [9] was 3.30 fold and the “electrocardiogram (ECG) changes” value [10] was “No clinically significant electrocardiogram (ECG) changes were noted”. For the same molecule, the safety and tolerability [10] was “safe and well tolerated with no serious adverse events”.

In the case of `Cc1cn([C@H]2C[C@H](N=[N+]=[N-])[C@@H](CO[C@@H]3O[C@H](C(=O)O)[C@@H](O)[C@H](O)[C@H]3O)O2)c(=O)[nH]c1=O` [G-ZDV], the “AUCtau, Cmax, Ctau (Compound 1 only) 90% CI of GMR (co-administration:alone)” value [8] is reported as “within predefined PK equivalence bounds”.

`Cc1ncc2n1-c1ccc(Cl)cc1C(c1ccccc1F)=NC2` [MDZ, midazolam] showed an AUCinf ([11]; +20 mg RTV QD with Compound 1 125 mg) of 101 ng·h/mL, an AUCinf ([11]; +50 mg RTV QD with Compound 1 125 mg) of 145 ng·h/mL and an AUCinf ([11]; +100 mg RTV QD with Compound 1 125 mg) of 219 ng·h/mL. For the same molecule, the AUCinf ([11]; +200 mg RTV QD with Compound 1 125 mg) was 146 ng·h/mL, the AUCinf ([11]; MDZ alone (Day 1)) was 31.0 ng·h/mL and the CL ([11]; MDZ +20 mg RTV) was 2.38 mL/min/kg. For the same molecule, the Clast ([11]; MDZ +20 mg RTV) was 1.53 ng/mL, the Half-life ([11]; MDZ +20 mg RTV) was 7.83 h and the CL ([11]; MDZ +50 mg RTV) was 1.5 mL/min/kg. For the same molecule, the Clast ([11]; MDZ +50 mg RTV) was 2.51 ng/mL, the Half-life ([11]; MDZ +50 mg RTV) was 14.4 h and the CL ([11]; MDZ +100 mg RTV) was 1.2 mL/min/kg. It also gave a Clast ([11]; MDZ +100 mg RTV) of 3.34 ng/mL, a Half-life ([11]; MDZ +100 mg RTV) of 22.4 h and a CL ([11]; MDZ +200 mg RTV) of 1.45 mL/min/kg. For the same molecule, the Clast ([11]; MDZ +200 mg RTV) was 2.58 ng/mL, the Half-life ([11]; MDZ +200 mg RTV) was 15.2 h and the CL ([11]; MDZ alone) was 7.45 mL/min/kg. For the same molecule, the Clast ([11]; MDZ alone) was 0.20 ng/mL and the Half-life ([11]; MDZ alone) was 3.97 h.

For `CC(C)c1nc(CN(C)C(=O)N[C@H](C(=O)N[C@@H](Cc2ccccc2)C[C@H](O)[C@H](Cc2ccccc2)NC(=O)OCc2cncs2)C(C)C)cs1` [Ritonavir, (2S,3S,5S)-5-(N—(N—((N-Methyl-N-((2-isopropyl-4-thiazolyl)methyl)amino)-carbonyl)-L-valinyl)amino)-2-(N-((5-thiazolyl)methoxycarbonyl)amino)-1,6-diphenyl-3-hydroxyhexane], the Half-life [12] was 6.34 (18.4) hr.

In the case of `Cc1cn([C@H]2C[C@H](N=[N+]=[N-])[C@@H](CO)O2)c(=O)[nH]c1=O` [ZDV, zidovudine, reference compound], the “AUCtau, Cmax, Ctau (Compound 1 only) 90% CI of GMR (co-administration:alone)” value [8] is reported as “within predefined PK equivalence bounds”.

— patent publication US20090233964A1, “METHODS FOR IMPROVING THE PHARMACOKINETICS OF HIV INTEGRASE INHIBITORS” (priority 2005, published 2009)
